Data published in patent publication US5631247A, “Compounds and compositions with nitrogen-containing non-basic side chains” (Eli Lilly and Company, priority 1996, dated 1997).
Several values for one entry are separate records, joined by “and”; a condition that tells them apart may be missing. Equal entries are not always repeated.

Assays:
[1] = system: eosinophil peroxidase; assay: Uterine eosinophil peroxidase (EPO) assay in ovariectomized rats (four day dosing); format: in vivo, female Sprague Dawley rats; design: Uterine EPO (Vmax): unit not given here; details: oral, daily for 4 days, OVX rats
Method: (§1) In the examples illustrating the methods, a post-menopausal model was used in which effects of different treatments upon various biological parameters were determined, including serum cholesterol concentration, uterine weight, eosinophil peroxidase activity, MCF-7 cell proliferation, and bone density.
(§2) Animals were dosed daily for 4 days. […] A blood sample was collected by cardiac puncture.
(§3) The data presented in Table 1 reflect the response of 5 to 6 rats per treatment.

[2] = system: MCF-7 breast adenocarcinoma cells; assay: MCF-7 proliferation assay (tritiated thymidine); format: cell-based; details: Homo sapiens, MCF7, 48 hours with drug, read-out: ED50 (the source's name)
Method: MCF-7 breast adenocarcinoma cells (ATCC HTB 22) were maintained in MEM (minimal essential medium, phenol red-free, Sigma, St. Louis, Mo.) supplemented with 10% fetal bovine serum (FBS) (V/V), L-glutamine (2 mM), sodium pyruvate (1 mM), HEPES {(N-[2-hydroxyethyl]piperazine-N'-[2-ethanesulfonic acid]10 mM}, non-essential amino acids and bovine insulin (1 μg/ml) (maintenance medium). Ten days prior to assay, MCF-7 cells were switched to maintenance medium supplemented with 10% dextrancoated charcoal stripped fetal bovine serum (DCC-FBS) assay medium) in place of 10% FBS to deplete internal stores of steroids. MCF-7 cells were removed from maintenance flasks using cell dissociation medium (Ca++/Mg++ free HBSS (phenol red-free) supplemented with 10 mM HEPES and 2 mM EDTA). Cells were washed twice with assay medium and adjusted to 80,000 cells/mi. Approximately […] (8,000 cells) were added to flat-bottom microculture wells (Costar 3596) and incubated at 37° C. in a 5% CO2 humidified incubator for 48 hours to allow for cell adherence and equilibration after transfer. Serial dilutions of drugs or DMSO as a diluent control were prepared in assay medium and […] to triplicate microcultures followed by 50 ml assay medium for a final volume of […]. After an additional 48 hours at 37° C. in a 5% CO2 humidified incubator, microcultures were pulsed with tritiated thymidine (1 uCi/well) for 4 hours. Cultures were terminated by freezing at -70° C. for 24 hours followed by thawing and harvesting of microcultures. Samples were counted by liquid scintillation. Results in Table 3 below show the ED50 for certain compounds of the present invention.

[3] = system: uterus; assay: Wet uterine weight in ovariectomized rats (four day dosing); format: in vivo, female Sprague Dawley rats; details: Rattus norvegicus, po, 96 h, daily for 4 days, increase vs OVX control, read-out: Uterine Weight (% inc. OVX)
Method: as §1, §2
(§4) Data presented in Table 1 below show comparative results among control ovariectomized rats, rats treated with EE2, and rats treated with certain compounds of the present invention. […] This uterine response to estrogen is well recognized in the art.
as §3

[4] = system: serum cholesterol; assay: Serum cholesterol in ovariectomized rats (post-menopausal rat model, four day dosing); format: in vivo, female Sprague Dawley rats; details: oral, daily for 4 days, decrease vs OVX control
Method: as §1, §2
Blood samples were allowed to clot at room temperature for 2 hours, and serum was obtained following centrifugation for 10 minutes at 3000 rpm. Serum cholesterol was determined using a Boshringer Mannheim Diagnostics high performance cholesterol assay. Briefly the cholesterol was oxidized to cholest-4-en-3-one and hydrogen peroxide. The hydrogen peroxide was then reacted with phenol and 4-aminophenazone in the presence of peroxidase to produce a p-quinone imine dye, which was read spectrophotemetrically at 500 nm. Cholesterol concentration was then calculated against a standard curve. The entire assay was automated using a Biomek Automated Workstation.
as §4, §3

SMILES: O=C(c1ccc(OCCN2CCCCC2=O)cc1)c1c(-c2ccc(O)cc2)sc2cc(O)ccc12 [Compound 3]
- Uterine EPO (Vmax) ([1]; 0.1 mg/kg): 8.0
- Uterine EPO (Vmax) ([1]; 1 mg/kg): 7.8
- Uterine EPO (Vmax) ([1]; 10 mg/kg): 8.9
- IC50 [2]: 600 nM
- change in vivo at 0.1 mg/kg [3]: 13.3%
- change in vivo at 1 mg/kg [3]: 17.8%
- change in vivo at 10 mg/kg [3]: 57.6%

SMILES: O=C(c1ccc(OCCN2CCCC2=O)cc1)c1c(-c2ccc(O)cc2)sc2cc(O)ccc12 [Compound 6]
- Uterine EPO (Vmax) ([1]; 0.1 mg/kg): 3.6
- Uterine EPO (Vmax) ([1]; 1 mg/kg): 1.4
- Uterine EPO (Vmax) ([1]; 10 mg/kg): 3.7
- change in vivo at 0.1 mg/kg [3]: -9%
- change in vivo at 1 mg/kg [3]: 15.4%
- change in vivo at 10 mg/kg [3]: 40.3%

SMILES: COc1ccc(-c2sc3cc(OC)ccc3c2C(=O)c2ccc(OCC(=O)N3CCCCC3)cc2)cc1 [Compound 7]
- Uterine EPO (Vmax) ([1]; 0.1 mg/kg): 5.2
- Uterine EPO (Vmax) ([1]; 1 mg/kg): 3.7
- Uterine EPO (Vmax) ([1]; 10 mg/kg): 4.7
- IC50 [2]: > 1000 nM
- change in vivo at 0.1 mg/kg [3]: -0.5%
- change in vivo at 1 mg/kg [3]: -16.2%
- change in vivo at 10 mg/kg [3]: 8.4%

SMILES: O=C(c1ccc(OCC(=O)N2CCCC2)cc1)c1c(-c2ccc(O)cc2)sc2cc(O)ccc12 [Compound 8]
- Uterine EPO (Vmax) ([1]; 0.01 mg/kg): 3.5
- Serum Cholesterol (% dec. OVX) ([4]; 1 mg/kg): 69.6% and 39.4%
- Serum Cholesterol (% dec. OVX) ([4]; 10 mg/kg): 64.5%
- IC50 [2]: 10 nM
- change in vivo at 0.01 mg/kg ([3]; 0.01 mg/kg): -22.9%

SMILES: O=C(c1ccc(OCC(=O)N2CCCCC2)cc1)c1c(-c2ccc(O)cc2)sc2cc(O)ccc12 [Compound 9]
- Uterine EPO (Vmax) ([1]; 0.1 mg/kg): 2.8
- Uterine EPO (Vmax) ([1]; 1 mg/kg): 3.6
- Uterine EPO (Vmax) ([1]; 10 mg/kg): 32
- IC50 [2]: 10 nM
- change in vivo at 0.1 mg/kg [3]: -10%
- change in vivo at 1 mg/kg [3]: 6.5%
- change in vivo at 10 mg/kg [3]: 51.7%

SMILES: CCCCN(C)C(=O)COc1ccc(C(=O)c2c(-c3ccc(O)cc3)sc3cc(O)ccc23)cc1 [Compound 10]
- Uterine EPO (Vmax) ([1]; 0.1 mg/kg): 4.3
- Uterine EPO (Vmax) ([1]; 1 mg/kg): 3.1
- Uterine EPO (Vmax) ([1]; 10 mg/kg): 17.0
- IC50 [2]: 50 nM
- change in vivo at 0.1 mg/kg [3]: 1.5%
- change in vivo at 1 mg/kg [3]: -6.7%
- change in vivo at 10 mg/kg [3]: 38%

SMILES: CN(C)C(=O)COc1ccc(C(=O)c2c(-c3ccc(O)cc3)sc3cc(O)ccc23)cc1 [Compound 12]
- Uterine EPO (Vmax) ([1]; 0.1 mg/kg): 3.7
- Uterine EPO (Vmax) ([1]; 1 mg/kg): 6.7
- Uterine EPO (Vmax) ([1]; 10 mg/kg): 122.3
- change in vivo at 0.1 mg/kg [3]: -7.7%
- change in vivo at 1 mg/kg [3]: 15.4%
- change in vivo at 10 mg/kg [3]: 60.7%

SMILES: O=C(c1ccc(OCCN2C(=O)CCC2=O)cc1)c1c(-c2ccc(O)cc2)sc2cc(O)ccc12 [Compound 13]
- Uterine EPO (Vmax) ([1]; 0.1 mg/kg): 1.9
- Uterine EPO (Vmax) ([1]; 1 mg/kg): 1.7
- Uterine EPO (Vmax) ([1]; 10 mg/kg): 2.5
- IC50 [2]: > 1000 nM
- change in vivo at 0.1 mg/kg [3]: 22.2%
- change in vivo at 1 mg/kg [3]: 7.2%
- change in vivo at 10 mg/kg [3]: -4%

SMILES: N#CCOc1ccc(C(=O)c2c(-c3ccc(O)cc3)sc3cc(O)ccc23)cc1 [Compound 14]
- Uterine EPO (Vmax) ([1]; 0.1 mg/kg): 3.3
- Uterine EPO (Vmax) ([1]; 1 mg/kg): 2.4
- Uterine EPO (Vmax) ([1]; 10 mg/kg): 145.8
- IC50 [2]: 0.05 nM
- change in vivo at 0.1 mg/kg [3]: 18.8%
- change in vivo at 1 mg/kg [3]: 14.6%
- change in vivo at 10 mg/kg [3]: 125%
